In US20110212950A1, “4,4-DISUBSTITUTED PIPERIDINES” (NOVARTIS AG, priority 2007, published 2011):

target: T1, renin (Homo sapiens, UniProt P00797); assay: in vitro test of Nussberger et al.: formation of angiotensin I in human plasma (radioimmunoassay); format: biochemical; settings: inhibition of formation of angiotensin I in human plasma
T1 construct: This test measures the formation of angiotensin I in human plasma; from tissue; host or cells: human plasma
T1 sequence (P00797 67-406): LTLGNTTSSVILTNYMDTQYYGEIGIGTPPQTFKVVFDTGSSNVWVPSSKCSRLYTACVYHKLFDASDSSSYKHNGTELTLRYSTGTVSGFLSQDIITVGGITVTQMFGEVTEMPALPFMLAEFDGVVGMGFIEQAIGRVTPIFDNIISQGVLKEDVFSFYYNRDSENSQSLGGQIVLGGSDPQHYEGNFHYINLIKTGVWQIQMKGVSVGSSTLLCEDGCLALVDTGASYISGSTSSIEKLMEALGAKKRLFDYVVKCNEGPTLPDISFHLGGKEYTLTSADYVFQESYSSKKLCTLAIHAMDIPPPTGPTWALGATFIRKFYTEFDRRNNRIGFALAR
Protocol: The effect of renin inhibitors is detected inter alia experimentally by means of in vitro tests where the reduction in the formation of angiotensin I is measured in various systems (human plasma, purified human renin together with synthetic or natural renin substrate). The following in vitro test of Nussberger et al. (1987) J. Cardiovascular Pharmacol., Vol. 9, pp. 39-44, is used inter alia. This test measures the formation of angiotensin I in human plasma. The amount of angiotensin I formed is determined in a subsequent radioimmunoassay. The effect of inhibitors on the formation of angiotensin I is tested in this system by adding various concentrations of these substances. The IC50 is defined as the concentration of the particular inhibitor which reduces the formation of angiotensin I by 50%. The compounds of the present invention show inhibitory effects in the in vitro systems at minimal concentrations of about 10^−6 to about 10^−10 mol/I.

IC50 [nM] | Structure (SMILES)
123 | COCCCN1CCOc2ccc(CO[C@H]3CNCC[C@]3(O)c3ccc(COC[C@@H](C)Cn4cnnn4)cc3)cc21 [Example 371, (3S,4S)-3-[4-(3-Methoxy-propyl)-3,4-dihydro-2H-benzo[1,4]oxazin-6-ylmethoxy]-4-[4-((S)-2-methyl-3-tetrazol-1-yl-propoxymethyl)-phenyl]-piperidin-4-ol]
9.6 | CCO[C@H](C)COCc1ccc([C@@]2(O)CCNC[C@@H]2OCc2ccc3c(c2)N(CCCOC)CCO3)c(CCOC)c1 [Example 378, (3S,4S)-4-[4-((R)-2-Ethoxy-propoxymethyl)-2-(2-methoxy-ethyl)-phenyl]-3-[4-(3-methoxy-propyl)-3,4-dihydro-2H-benzo[1,4]oxazin-6-ylmethoxy]-piperidin-4-ol]
40.4 | COCCCN1CCOc2ccc(CO[C@H]3CNCC[C@]3(O)c3ccc(COCCOC)cc3)cc21 [Example 361, (3S,4S)-4-[4-(2-Methoxy-ethoxymethyl)-phenyl]-3-[4-(3-methoxy-propyl)-3,4-dihydro-2H-benzo[1,4]oxazin-6-ylmethoxy]-piperidin-4-ol]
84.3 | CCO[C@H](C)COCc1ccc([C@@]2(O)CCNC[C@@H]2OCc2ccc3c(c2)N(CCCOC)CCO3)c(OCCOC)c1 [Example 375, (3S,4S)-4-[4-((R)-2-Ethoxy-propoxymethyl)-2-(2-methoxy-ethoxy)-phenyl]-3-[4-(3-methoxy-propyl)-3,4-dihydro-2H-benzo[1.4]oxazin-6-ylmethoxy]-piperidin-4-ol]
